Measured values as given in patent US20150299219A1, “BICYCLIC PYRAZOLONE COMPOUNDS AND METHODS OF USE” (Calitor Sciences, LLC, priority 2014, published 2015).
pIC50: −log10 of the molar value.

Key:
c-Met (h) = molecular target: T1, c-Met (h) (Homo sapiens, UniProt P08581); assay: c-Met (h) kinase assay; type: biochemical
T1 construct: purchased Millipore UK Ltd
Method: Kinase assays can be performed by measurement of incorporation of γ-^33P ATP into immobilized myelin basic protein (MBP). High binding white 384 well plates (Greiner) are coated with MBP (Sigma #M-1891) by incubation of 60 μL/well of 20 μg/mL MBP in Tris-buffered saline (TBS; 50 mM Tris pH 8.0, 138 mM NaCl, 2.7 mM KCl) for 24 h at 4° C. Plates are washed 3× with 100 μL TBS. Kinase reactions are carried out in a total volume of 34 μL in kinase buffer (5 mM Hepes pH 7.6, 15 mM NaCl, 0.01% bovine gamma globulin (Sigma #I-5506), 10 mM MgCl2, 1 mM DTT, 0.02% TritonX-100). Compound dilutions are performed in DMSO and added to assay wells to a final DMSO concentration of 1%. Each data point is measured in duplicate, and at least two duplicate assays are performed for each individual compound determination. Enzyme is added to final concentrations of 10 nM or 20 nM, for example. A mixture of unlabeled ATP and γ-^33P ATP is added to start the reaction (2×10^6 cpm of γ-^33P ATP per well (3000 Ci/mmole) and 10 μM unlabeled ATP, typically. The reactions are carried out for 1 h at room temperature with shaking. Plates are washed 7× with TBS, followed by the addition of 50 μL/well scintillation fluid (Wallac). Plates are read using a Wallac Trilux counter. This is only one format of such assays; various other formats are possible, as known to one skilled in the art.
(§1) The above assay procedure can be used to determine the IC50 for inhibition and/or the inhibition constant, Ki. The IC50 is defined as the concentration of compound required to reduce the enzyme activity by 50% under the condition of the assay. The IC50 value is estimated by preparing a 10 point curve using a 1/2 log dilution series (for example, a typical curve may be prepared using the following compound concentrations: 10 μM, 3 μM, 1 μM, 0.3 μM, 0.1 μM, 0.03 μM, 0.01 μM, 0.003 μM, 0.001 μM and 0 μM).
(§2) Met (h) is incubated with 8 mM MOPS pH 7.0, 0.2 mM EDTA, 250 μM KKKSPGEYVNIEFG, 10 mM MgAcetate and [γ-^33P-ATP] (specific activity approx. 500 cpm/pmol, concentration as required). The reaction is initiated by the addition of the MgATP mix. After incubation for 40 minutes at room temperature, the reaction is stopped by the addition of 3% phosphoric acid solution. 10 μL of the reaction is then spotted onto a P30 filtermat and washed three times for 5 minutes in 75 mM phosphoric acid and once in methanol prior to drying and scintillation counting.
(§3) The kinase assays described herein were performed at Millipore UK Ltd, Dundee Technology Park, Dundee DD2 1SW, UK.

Axl (h) = molecular target: T2, Axl (h) (Homo sapiens, UniProt P30530); assay: Axl (h) kinase assay; type: biochemical
T2 construct: purchased Millipore UK Ltd
T2 sequence (P30530 26-894): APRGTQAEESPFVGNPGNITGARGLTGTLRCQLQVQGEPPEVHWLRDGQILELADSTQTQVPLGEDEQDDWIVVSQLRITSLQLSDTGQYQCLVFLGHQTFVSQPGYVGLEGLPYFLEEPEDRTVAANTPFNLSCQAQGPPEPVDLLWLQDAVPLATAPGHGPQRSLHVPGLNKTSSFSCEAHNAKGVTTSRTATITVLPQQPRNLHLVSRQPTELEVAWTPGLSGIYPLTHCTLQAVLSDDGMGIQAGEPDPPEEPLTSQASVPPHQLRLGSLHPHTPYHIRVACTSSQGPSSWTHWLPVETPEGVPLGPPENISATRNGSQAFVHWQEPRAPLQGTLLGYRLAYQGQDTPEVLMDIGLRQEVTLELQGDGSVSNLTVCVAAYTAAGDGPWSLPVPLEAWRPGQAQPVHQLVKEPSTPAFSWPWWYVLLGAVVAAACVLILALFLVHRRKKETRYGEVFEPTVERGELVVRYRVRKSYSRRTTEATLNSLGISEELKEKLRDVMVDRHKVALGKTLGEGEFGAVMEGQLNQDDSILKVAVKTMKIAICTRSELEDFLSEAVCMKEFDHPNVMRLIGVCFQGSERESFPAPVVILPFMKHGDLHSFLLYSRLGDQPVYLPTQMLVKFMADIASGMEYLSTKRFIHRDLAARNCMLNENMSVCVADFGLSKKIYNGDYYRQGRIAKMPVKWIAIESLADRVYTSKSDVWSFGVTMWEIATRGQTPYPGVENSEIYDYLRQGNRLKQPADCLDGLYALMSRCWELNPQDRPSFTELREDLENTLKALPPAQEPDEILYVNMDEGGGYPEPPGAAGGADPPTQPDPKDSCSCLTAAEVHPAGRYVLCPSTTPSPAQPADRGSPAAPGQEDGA
Method: as §1
as §2, with “Axl” for “Met”, “KKSRGDYMTMQIG,” for “KKKSPGEYVNIEFG,”
as §3

T1 sequence (P08581 25-1390): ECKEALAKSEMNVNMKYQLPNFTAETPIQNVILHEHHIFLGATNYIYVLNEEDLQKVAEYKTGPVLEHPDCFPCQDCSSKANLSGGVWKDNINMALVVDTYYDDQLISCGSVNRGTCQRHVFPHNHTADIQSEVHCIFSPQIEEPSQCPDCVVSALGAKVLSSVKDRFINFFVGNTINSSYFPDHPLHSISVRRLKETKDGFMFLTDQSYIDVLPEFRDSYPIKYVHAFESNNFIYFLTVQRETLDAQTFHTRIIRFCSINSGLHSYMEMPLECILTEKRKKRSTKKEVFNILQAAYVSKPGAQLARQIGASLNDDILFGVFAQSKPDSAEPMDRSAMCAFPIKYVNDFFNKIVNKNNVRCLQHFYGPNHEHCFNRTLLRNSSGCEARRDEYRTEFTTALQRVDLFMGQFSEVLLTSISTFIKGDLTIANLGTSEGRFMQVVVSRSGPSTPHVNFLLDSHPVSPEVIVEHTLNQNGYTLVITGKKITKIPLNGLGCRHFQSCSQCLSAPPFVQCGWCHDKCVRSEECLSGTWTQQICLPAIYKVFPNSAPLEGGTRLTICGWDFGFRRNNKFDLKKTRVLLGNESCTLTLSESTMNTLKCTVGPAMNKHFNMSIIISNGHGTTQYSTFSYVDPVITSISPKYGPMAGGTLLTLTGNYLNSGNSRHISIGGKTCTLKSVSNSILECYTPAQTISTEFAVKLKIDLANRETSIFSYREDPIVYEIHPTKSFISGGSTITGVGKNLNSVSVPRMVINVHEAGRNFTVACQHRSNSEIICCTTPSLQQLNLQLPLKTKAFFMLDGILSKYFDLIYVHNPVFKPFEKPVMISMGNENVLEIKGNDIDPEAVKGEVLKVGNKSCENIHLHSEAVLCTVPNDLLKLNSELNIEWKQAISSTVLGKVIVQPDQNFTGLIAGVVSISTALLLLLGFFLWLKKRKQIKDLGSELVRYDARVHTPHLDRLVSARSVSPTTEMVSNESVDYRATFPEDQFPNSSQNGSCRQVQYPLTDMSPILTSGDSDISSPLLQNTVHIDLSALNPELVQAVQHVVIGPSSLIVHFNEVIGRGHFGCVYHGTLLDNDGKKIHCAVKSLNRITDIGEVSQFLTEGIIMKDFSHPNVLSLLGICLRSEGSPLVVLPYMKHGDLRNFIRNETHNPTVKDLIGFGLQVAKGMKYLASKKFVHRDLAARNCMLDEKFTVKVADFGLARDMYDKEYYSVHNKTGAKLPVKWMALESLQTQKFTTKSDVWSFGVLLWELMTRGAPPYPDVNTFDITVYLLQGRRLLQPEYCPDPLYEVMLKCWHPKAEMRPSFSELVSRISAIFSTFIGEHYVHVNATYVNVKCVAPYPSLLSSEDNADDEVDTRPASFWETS

pIC50 (c-Met (h)) | pIC50 (Axl (h)) | Structure (SMILES)
7.59 |  | O=C(Nc1ccc(Oc2ccnc(NC(=O)C3CC3)c2)cc1)c1c2n(n(-c3ccccc3)c1=O)CCC2 [Ex. 2, N-(4-((2-(cyclopropanecarboxamido)pyridin-4-yl)oxy)phenyl)-2-oxo-1-phenyl-2,4,5,6-tetrahydro-1H-pyrrolo[1,2-b]pyrazole-3-carboxamide]
7.00 |  | CC(=O)Nc1cc(Oc2ccc(NC(=O)c3c4n(n(-c5ccccc5)c3=O)CCC4)cc2)ccn1 [Ex. 3, N-(4-((2-acetamidopyridin-4-yl)oxy)phenyl)-2-oxo-1-phenyl-2,4,5,6-tetrahydro-1H-pyrrolo[1,2-b]pyrazole-3-carboxamide]
7.27 | 7.85 | CC(=O)Nc1cc(Oc2ccc(NC(=O)c3c4n(n(-c5ccccc5)c3=O)CCOC4)nc2)ccn1 [Ex. 12, N-(5-((2-acetamidopyridin-4-yl)oxy)pyridin-2-yl)-2-oxo-1-phenyl-2,4,6,7-tetrahydro-1H-pyrazolo[5,1-c][1,4]oxazine-3-carboxamide]
7.68 | 8.15 | O=C(Nc1ccc(Oc2ccnc(NC(=O)C3CC3)c2)cn1)c1c2n(n(-c3ccccc3)c1=O)CCC2 [Ex. 14, N-(5-((2-(cyclopropanecarboxamido)pyridin-4-yl)oxy)pyridin-2-yl)-2-oxo-1-phenyl-2,4,5,6-tetrahydro-1H-pyrrolo[1,2-b]pyrazole-3-carboxamide]
7.39 | 8.30 | O=C(Nc1ccc(Oc2ccnc(NC(=O)C3CC3)c2)cc1)c1c2n(n(-c3ccccc3)c1=O)CCOC2 [Ex. 19, N-(4-((2-(cyclopropanecarboxamido)pyridin-4-yl)oxy)phenyl)-2-oxo-1-phenyl-2,4,6,7-tetrahydro-1H-pyrazolo[5,1-c][1,4]oxazine-3-carboxamide]
